Where a SMILES comes first, the peptide text is derived from it.
The molecules below were run on E. coli strain BL21. Settings: BL21, 24 h.
CC(C)C[C@H](NC(=O)[C@H](CCCNC(=N)N)NC(=O)[C@H](CCCNC(=N)N)NC(=O)[C@H](CCC(N)=O)NC(=O)[C@H](Cc1c[nH]c2ccccc12)NC(=O)[C@H](CCC(N)=O)NC(=O)[C@H](Cc1ccccc1)NC(=O)[C@H](C)NC(=O)[C@H](CCC(=O)O)NC(=O)[C@@H]1CCCN1C(=O)[C@H](CC(C)C)NC(=O)[C@@H](N)CCCNC(=N)N)C(=O)N[C@@H](CCCNC(=N)N)C(=O)N[C@@H](CCCNC(=N)N)C(=O)N[C@@H](Cc1c[nH]c2ccccc12)C(=O)N[C@@H](CCCNC(=N)N)C(=O)N[C@@H](CCCNC(=N)N)C(=O)N1CCC[C@H]1C(=O)N[C@@H](CC(=O)O)C(=O)N[C@@H](CO)C(=O)N1CCC[C@H]1C(=O)NCC(=O)N[C@@H](CCCNC(=N)N)C(=O)N[C@@H](CCCNC(=N)N)C(=O)N[C@@H](Cc1c[nH]c2ccccc12)C(=O)N[C@@H](Cc1c[nH]c2ccccc12)C(=O)N[C@@H](CCCNC(=N)N)C(=O)N[C@@H](Cc1c[nH]c2ccccc12)C(=O)N[C@@H](Cc1c[nH]c2ccccc12)C(=O)N[C@@H](CCCNC(=N)N)C(=O)O [UGK-5] (H-RLPEAFQWQRRLRRWRRPDSPGRRWWRWWR-OH; N-terminus and C-terminus assumed) showed an MIC of 5 to 10 mM. For CC[C@H](C)[C@H](NC(=O)[C@H](CCCNC(=N)N)NC(=O)[C@H](CCCNC(=N)N)NC(=O)[C@H](CCC(N)=O)NC(=O)[C@H](Cc1c[nH]c2ccccc12)NC(=O)[C@H](Cc1ccccc1)NC(=O)CNC(=O)[C@@H]1CCCN1C(=O)[C@H](CO)NC(=O)CNC(=O)[C@H](CCCCN)NC(=O)[C@H](CC(C)C)NC(=O)[C@H](CO)NC(=O)[C@H](CCCCN)NC(=O)[C@H](CC(C)C)NC(=O)[C@@H](NC(=O)[C@H](CCC(=O)O)NC(=O)[C@H](CC(C)C)NC(=O)[C@H](CC(C)C)NC(=O)[C@H](CCCCN)NC(=O)[C@H](CCC(N)=O)NC(=O)[C@@H]1CCCN1C(=O)[C@H](CC(C)C)NC(=O)[C@H](CCCCN)NC(=O)[C@@H](N)CCCCN)[C@@H](C)CC)C(=O)N[C@@H](CCCNC(=N)N)C(=O)N[C@@H](CCCNC(=N)N)C(=O)N[C@@H](Cc1c[nH]c2ccccc12)C(=O)N[C@@H](CCCNC(=N)N)C(=O)N[C@@H](CCCNC(=N)N)C(=O)O [UGK-21], the MIC was 1.25 to 2.5 mM. CC[C@H](C)[C@H](NC(=O)[C@H](CCCNC(=N)N)NC(=O)[C@H](CCCNC(=N)N)NC(=O)[C@H](CCC(N)=O)NC(=O)[C@H](Cc1c[nH]c2ccccc12)NC(=O)[C@H](Cc1ccccc1)NC(=O)CNC(=O)[C@@H]1CCCN1C(=O)[C@H](CO)NC(=O)CNC(=O)[C@H](CCC(=O)O)NC(=O)[C@H](CC(C)C)NC(=O)[C@H](CO)NC(=O)[C@H](CCCCN)NC(=O)[C@H](CC(C)C)NC(=O)[C@@H](NC(=O)[C@H](CCC(=O)O)NC(=O)[C@H](CC(C)C)NC(=O)[C@H](CC(C)C)NC(=O)[C@H](CCCCN)NC(=O)[C@H](CCC(=O)O)NC(=O)[C@@H]1CCCN1C(=O)[C@H](CC(C)C)NC(=O)[C@H](CCCCN)NC(=O)[C@@H](N)CCCCN)[C@@H](C)CC)C(=O)N[C@@H](CCCNC(=N)N)C(=O)N[C@@H](CCCNC(=N)N)C(=O)N[C@@H](Cc1c[nH]c2ccccc12)C(=O)N[C@@H](CCCNC(=N)N)C(=O)N[C@@H](CCCNC(=N)N)C(=O)O [UGK-25] (H-KKLPEKLLEILKSLEGSPGFWQRRIRRWRR-OH; N-terminus and C-terminus assumed) gave an MIC of 2.5 to 5 mM. In the case of CSCC[C@H](NC(=O)[C@H](Cc1c[nH]c2ccccc12)NC(=O)[C@H](CCC(=O)O)NC(=O)[C@H](Cc1c[nH]c2ccccc12)NC(=O)[C@H](Cc1c[nH]c2ccccc12)NC(=O)[C@H](CCCNC(=N)N)NC(=O)[C@H](CCCNC(=N)N)NC(=O)[C@H](CCC(=O)O)NC(=O)[C@H](CC(C)C)NC(=O)[C@@H]1CCCN1C(=O)[C@H](CO)NC(=O)[C@H](CC(=O)O)NC(=O)[C@H](CC(C)C)NC(=O)[C@H](CC(C)C)NC(=O)[C@H](CCCNC(=N)N)NC(=O)[C@H](CCCNC(=N)N)NC(=O)[C@@H](NC(=O)[C@H](CC(C)C)NC(=O)[C@H](CCC(=O)O)NC(=O)[C@H](CCC(N)=O)NC(=O)[C@H](CC(C)C)NC(=O)[C@H](CCC(N)=O)NC(=O)[C@H](CCC(=O)O)NC(=O)[C@H](CO)NC(=O)CNC(=O)[C@H](CCCNC(=N)N)NC(=O)[C@@H]1CCCN1C(=O)[C@@H](N)CCCCN)[C@@H](C)O)C(=O)N[C@@H](CCCNC(=N)N)C(=O)N[C@@H](CCCNC(=N)N)C(=O)O [UGK-29] (H-KPRGSEQLQELTRRLLDSPLERRWWEWMRR-OH; N-terminus and C-terminus assumed), the MIC is reported as >20 mM. With CC(C)C[C@H](NC(=O)[C@H](CCC(N)=O)NC(=O)[C@H](CCC(=O)O)NC(=O)[C@H](CO)NC(=O)[C@H](CC(C)C)NC(=O)[C@H](CCCNC(=N)N)NC(=O)[C@@H]1CCCN1C(=O)[C@@H](N)CCCCN)C(=O)N[C@@H](CCC(N)=O)C(=O)N[C@@H](CCC(=O)O)C(=O)N[C@@H](CC(C)C)C(=O)N[C@H](C(=O)N[C@@H](CCCNC(=N)N)C(=O)N[C@@H](CCCNC(=N)N)C(=O)N[C@@H](CC(C)C)C(=O)N[C@@H](CC(C)C)C(=O)N[C@@H](CC(=O)O)C(=O)N[C@@H](CO)C(=O)N1CCC[C@H]1C(=O)N[C@@H](CC(C)C)C(=O)N[C@@H](CCC(=O)O)C(=O)N[C@@H](CCCNC(=N)N)C(=O)N[C@@H](CCCNC(=N)N)C(=O)N[C@@H](Cc1c[nH]c2ccccc12)C(=O)N[C@@H](Cc1c[nH]c2ccccc12)C(=O)N[C@@H](CCC(=O)O)C(=O)N[C@@H](Cc1c[nH]c2ccccc12)C(=O)N[C@@H](Cc1c[nH]c2ccccc12)C(=O)N[C@@H](CCCNC(=N)N)C(=O)N[C@@H](CCCNC(=N)N)C(=O)O)[C@@H](C)O [UGK-33] (H-KPRLSEQLQELTRRLLDSPLERRWWEWWRR-OH; N-terminus and C-terminus assumed) the MIC was >20 mM. With CSCC[C@H](NC(=O)[C@H](Cc1c[nH]c2ccccc12)NC(=O)[C@H](CCC(N)=O)NC(=O)[C@H](Cc1c[nH]c2ccccc12)NC(=O)[C@H](Cc1ccccc1)NC(=O)[C@H](CCCNC(=N)N)NC(=O)[C@H](CCCNC(=N)N)NC(=O)[C@H](CCC(=O)O)NC(=O)[C@H](CC(C)C)NC(=O)[C@@H]1CCCN1C(=O)[C@H](CO)NC(=O)[C@H](CC(=O)O)NC(=O)[C@H](CC(C)C)NC(=O)[C@H](CC(C)C)NC(=O)[C@H](CCCNC(=N)N)NC(=O)[C@H](CCCNC(=N)N)NC(=O)[C@@H](NC(=O)[C@H](CC(C)C)NC(=O)[C@H](CCC(=O)O)NC(=O)[C@H](CCC(N)=O)NC(=O)[C@H](CC(C)C)NC(=O)[C@H](CCC(N)=O)NC(=O)[C@H](CCC(=O)O)NC(=O)[C@H](CO)NC(=O)CNC(=O)[C@H](CCCNC(=N)N)NC(=O)[C@@H]1CCCN1C(=O)[C@@H](N)CCCCN)[C@@H](C)O)C(=O)N[C@@H](CCCNC(=N)N)C(=O)N[C@@H](CCCNC(=N)N)C(=O)O [UGK-37, KPRGSEQLQELTRRLLDSPLERRFWOWMRR] (H-KPRGSEQLQELTRRLLDSPLERRFWQWMRR-OH; N-terminus and C-terminus assumed) the MIC was >20 mM.

From US20250243245A1 (priority 2022, published 2025)
